Source: patent US20250011881A1, “MYC-HSF1 DUAL AMPLIFICATION AS A BIOMARKER FOR CANCER TREATMENT” (The Trustees of Indiana University, priority 2023, published 2025)
“And” between values parts separate entries of the source, which are not always exact repeats. Equal values may be shown once.

Key:
[1] = test system: MYC and HSF1 protein in OVCAR8 cells; assay: Immunoblot of MYC and HSF1 after entinostat; assay type: cell-based; settings: OVCAR8, 24 hours
Experimental: FIG. 6C and FIG. 6D are immunoblots of OVCAR8 cells treated with entinostat at the indicated doses for 24 hours. Total protein from the cells was subjected to immunoblotting with the indicated antibodies.
Immunoblotting and co-immunoprecipitation was performed as described above. Antibodies for immunoblotting and immunoprecipitation included MYC (CST), HSF1 (CST), GAPDH (CST). […] Through the innovative method of screening potential therapeutics against cells having dual amplification of MYC and HSF1, Applicant was able to identify potential therapeutic targets, HDAC inhibitors, and therapeutics having increased efficacy against these cancer cells.

[2] = test system: HSF1 and MYC target genes in OVCAR8; assay: RT-qPCR of HSF1 and MYC target genes after entinostat; assay type: cell-based; settings: OVCAR8, 24 hrs
Experimental: FIG. 6B is a bar graph depicting mRNA relative fold change in OVCAR8 cells treated with entinostat at the indicated doses for 24 hours. Total RNA from the cells was subjected to RT-qPCR or the indicated transcripts.
Results of this screen indicated 45 of the top 54 hits were compounds that targeted histone deacetylases (HDACs). (Table 1). To test the effect of HDAC inhibitors on cell lines having dual copy number gain in both MYC and HSF1, we treated OVCAR8 (positive for MYC-HSF1 amplification) for 24 hrs with an HDAC inhibitor, etinostat. Total RNA from treated cells was subjected to RTqPCR. To conduct the RTqPCR, RNA was extracted from cells using an RNA isolation kit with DNAse treatment (Zymo). RNA was subjected to reverse transcription using RT Master Mix (Applied Biosystems). qPCR was performed with SYBR Green Master Mix (Applied Biosystems) using a QuantStudio3 (Applied Biosystems). Experiments were performed in biological triplicate and analyzed using the […].

[3] = test system: ovarian cancer cells with (OVCAR8, OVCAR4) or without (OVSAHO, CAOV3) MYC-HSF1 amplification; assay: Epigenetic inhibitor drug screen, cell viability (Cell Titer Blue); assay type: cell-based; settings: 10 uM, 48 hrs, average relative cell viability (vs 1% DMSO) of non-amplified cells (OVSAHO, CAOV3) minus that of MYC-HSF1 amplified cells (OVCAR8, OVCAR4), positive = greater response in amplified cells, 10 µM
[4] = test system: OVCAR8 cells in the flank of nude mice; assay: OVCAR8 flank tumor growth in nude mice; assay type: in vivo; settings: 15 or 20 mg/kg twice per week for five weeks
Experimental: (§1) FIG. 5D represents OVCAR8 cells (5e5) grown in the flank of nude mice until a volume between 50-100 mm^3 were achieved. Mice were then randomized to receive either vehicle, 15mg/kg, or 20 mg/kg volasertib twice per week. Tumor volume was measured with calipers (FIG. 5D) and body weight was measured (FIG. 5E) throughout the study.
(§2) Lastly, we evaluated the efficacy of the PLK1 inhibitor, volasertib, on tumor growth in vivo. OVCAR8 cells (5e5) were injected into the flank of nude mice and tumors were allowed to develop until 50-100 mm^3. Mice then received either vehicle (PBS) or 15 or 20 mg/kg volasertib twice per week for five weeks. Body weight and tumor volume were measured twice per week.

ovarian cancer patients = settings: cited from earlier work
[5] = test system: OVCAR8 (MYC-HSF1 co-amplified) cells; assay: Tumor spheroid growth, co-amplified cells; assay type: cell-based; settings: OVCAR8, 7 days
Experimental: FIG. 5B and FIG. 5C represent OVCAR8 (MYC-HSF1 co-amplified) and CAOV3 (non-amplified) cells subjected to tumor spheroid growth in the presence or absence of volasertib at the indicated doses. Spheroids were quantified by manual counting. The impact volasertib on spheroid growth in the two different cell lines is shown photographically (FIG. 5B) and graphically (FIG. 5C).
Ovarian cancer cells (1000-2000) were seeded into 24-well ultra-low attachment plates (Corning) and grown in serum-free spheroid media as we previously described (Wang et al., Mol Cancer Ther 2021). Spheroids were grown in the presence or absence of volasertib for 7 days. Spheroids were quantified by manual counting.

[6] = test system: cell lines with dual amplification (OVCAR8, SNU119, OVCAR4, and COV362); assay: Volasertib IC50, cell viability, MYC-HSF1 dual amplified cell lines; assay type: cell-based
Experimental: (§3) PLK1 is an active therapeutic target with several compounds targeting this kinase inPLK1 inhibitor that has shown promise as an effective cancer therapy in early phase clinical trials (Rudolph et al. Clin Cancer Res 2009; 15:3094-102;Pujade-Lauraine et al. J Clin Oncol 2016;34:706-13; Xie et al. Am J Cancer Res 2015;5:3548-59). […] To assess whether a PLK1 inhibitor has specificity for MYC-HSFIdual-amplified ovarian cancer cells, the IC50 for volasertib was assessed in cell lines with dual amplification (OVCAR8, SNU119, OVCAR4, and COV362) and in cell lines without dual amplification (OVSAHO, CAOV3, PEO1, OVCAR3).
(§4) The effectiveness of volasertib on MYC-HSF1 dual amplified cancer cells was also analyzed in several cell growth models. […] Cell viability assays were performed with Cell Titer Blue (Promega) as we previously described (Carpenter et al. Oncotarget 2017;8:73947-63). Clonogenic growth assays were performed by seeding <1000 cells into 6-well plates and staining with crystal violet after 7 days of growth. Colonies were quantified using FIJI.

[7] = test system: MYC-HSF1 dual amplified cells (OVCAR8, OVCAR4, SNU119); assay: Clonogenic growth assay; assay type: cell-based; settings: 7 days, crystal violet
Experimental: FIG. 5A depicts bar graphs showing clonogenic growth observed for OVCAR8, OVCAR4 and SNU119 cell lines subjected to the indicated dose of volasertib (BI-6727). Control cells were subjected to 1% DMSO instead of volasertib. Colonies were grown for 7 days prior to staining with crystal violet and quantification was completed with FIJI software.
as §4

[8] = Body weight of tumor-bearing nude mice; assay type: in vivo; settings: 15 or 20 mg/kg twice per week for five weeks
Experimental: as §1, §2

[9] = test system: HSF1 activity in OVCAR8 cells; assay: HSE luciferase reporter assay; assay type: cell-based; settings: OVCAR8, volasertib 1 nM, increasing time of treatment
Experimental: FIG. 4E is a bar graph representing OVCAR8 cells subjected to HSE luciferase assay with treatment of volasertib (1 nM) for the indicated times.
(§5) Considering PLK1 phosphorylation previously indicated affects the protein stability of MYC and HSF1, it was tested whether volasertib affects MYC or HSF1 protein levels. A time course study was performed where samples were treated with volasertib for time ranges of 0 to 18hours. […] Similarly, the effect of volasertib was tested on the activity of HSF1 using an HSE luciferase reporter.
Luciferase Reporter Assays: Luciferase reporter assays were performed as we previously described (Lu et al. bioRxiv 2020:2020.08.31.275909). The HSF1 activity reporter contains multiple heat shock element (HSE) motifs driving firefly luciferase. Experiments were performed with co-transfection of a constitutively active renilla reporter. Analysis was completed by dividing firefly activity by renilla activity.

[10] = test system: cell lines without dual amplification (OVSAHO, CAOV3, PEO1, OVCAR3); assay: Volasertib IC50, cell viability, non-amplified cell lines; assay type: cell-based; settings: average of OVSAHO, read-out: IC50 in non-amplified cells
Experimental: as §3, §4

[11] = test system: MYC and HSF1 protein in OVCAR8 cells; assay: Immunoblot time course of MYC and HSF1 protein after volasertib; assay type: cell-based; settings: OVCAR8, volasertib 1 nM, 0 to 18 hours
Experimental: as §5
Immunoblotting and Immunoprecipitation: Immunoblotting and co-immunoprecipitation was performed as we have previously described (Lu et al., bioRxiv 2020:2020.08.31.275909). Antibodies for immunoblotting and immunoprecipitation included MYC (CST), HSF1 (CST), β-actin (CST), GAPDH (CST), FLAG (Sigma), and p-HSF1 (S326) (Abcam).

[12] = single agent, ovarian cancer patients

Row | Compound | protein levels of MYC and HSF1 [1] | levels of HSF1 and MYC target genes (mRNA) [2] | Non Amp - AMP (POC) 10 uM ([3]; listed as Entinostat (MS-275, SNDX-275)) | Non Amp - AMP (POC) 10 uM ([3]; listed as MS-275 (entinostat)) | tumor growth in vivo [4] | toxicity and safety for use in humans (ovarian cancer patients; early phase clinical trials) | 24-week disease control rate (ovarian cancer patients; [12]) | patients with partial responses (ovarian cancer patients; [12]) | patients with progression-free survival for more than one year (ovarian cancer patients; single agent, none in patients receiving cytotoxic chemotherapy) | spheroid growth, MYC-HSF1 dual amplified cells [5] | IC50 ([6]; average of OVCAR8, SNU119, OVCAR4, COV362, read-out: IC50 for volasertib in MYC-HSF1 dual amplified cells) | fold difference of IC50, non-amplified vs MYC-HSF1 dual amplified cells ([6]; enhanced efficacy in dual amplified ovarian cancer cells) | clonogenic growth [7] | body weight [8] | HSF1 activity (HSE luciferase reporter) [9] | IC50 [10] | MYC and HSF1 protein levels [11]
1 | Nc1ccccc1NC(=O)c1ccc(CNC(=O)OCc2cccnc2)cc1 [Entinostat] | reduced protein levels of both MYC and HSF1 | significantly reduced levels of HSF1 and MYC target genes | 52.31 POC | 65.06 POC |  |  |  |  |  |  |  |  |  |  |  |  | 
2 | CC[C@@H]1C(=O)N(C)c2cnc(Nc3ccc(C(=O)N[C@H]4CC[C@H](N5CCN(CC6CC6)CC5)CC4)cc3OC)nc2N1C(C)C [volasertib] |  |  |  |  | strongly regress tumor growth | favorable toxicity and safety | 30% | 13% | 11% | inhibit spheroid growth | 0.033 µM | > 200 fold and 200 fold | strong inhibition of clonogenic growth | no change in body weight | increasing inhibition of HSF1 activity | 7.8 µM | loss of MYC and HSF1 protein after 3hours of volasertib exposure
